Results reported in patent US20250025451A1, “TREATMENT OF CANCER WITH KDM4 INHIBITORS” (Celgene Corporation, priority 2021, published 2025).
Read-outs that look alike come from different tables or passages of the source.

Legend:
[1] = test system: SU60 patient-derived colorectal cancer xenograft; assay: in vivo efficacy, SU60 patient-derived colorectal cancer xenograft model; settings: SU60 CRC PDX; for % TGI: Day 19; for Median Tumor Volumes Diff.: Day 19 minus Day 1
Experimental: The therapeutic in vivo efficacy of Compound 1 was evaluated in SU60 colorectal cancer, KYSE-150 esophageal cancer, COH70 triple-negative breast cancer, GXA-3036 gastric adenocarcinoma and OCI-LY19 Diffuse Large B-Cell Non-Hodgkin's Lymphoma xenograft models. In all studies, efficacy was determined based on percent tumor growth inhibition (TGI), differences in mean tumor growth, and statistical assessment of differences in net tumor volume distributions on the day of TGI analysis between control and treated animals. Tolerability was assessed based on differences in mean body weights between control and treated animals over the course of the study.
The in vivo therapeutic efficacy and tolerability of Compound 1, administered orally as the free acid form in a vehicle comprised of 50% polyethylene glycol 400 (PEG 400) and 50% PBS (pH 9), was evaluated in the SU60 CRC PDX model established in female non-obese diabetic/severe combined immunodeficiency (NOD/SCID) gamma (NSG) mice. Each mouse was inoculated subcutaneously in the abdomen with 2×10^6 SU60 tumor cells (0.1 ml) suspended in Matrigel. When the average tumor size reached ˜270 mm3, test animals were randomized into 6 groups consisting of 8 mice per group and treatments were initiated. Control mice received 50% PEG 400 and 50% PBS (pH 9) vehicle PO QD×7. Treated mice received Compound 1 in vehicle PO at 20 or 10 mg/kg QD×7, at 20 mg/kg QOD, at 23 mg/kg 3 on/4 off, or at 14 mg/kg at 5 on/2 off. TGI was determined on Day 19 as (1−Diff treated/Diff control)×100. The difference in mean net tumor volumes on the day of TGI analysis for treated versus control animals was evaluated statistically using one-way analysis of variance (ANOVA) followed by Dunnett's multiple comparisons test. Adjusted p-values are shown where a calculated probability (p)≤0.05 was considered statistically significant. Individual tumors were measured twice weekly in two dimensions using a caliper, and the tumor volumes (TV) in mm3 were calculated using the formula: TV=0.5 (l×w×h), where l, w, and h are the tumor length, width, and height in mm, respectively; Mean tumor volumes±standard error of the mean (SEM) were calculated and plotted versus days of dosing (FIG. 10 left panel). Body weights were measured twice weekly. Body weights±SEM were calculated and plotted versus days of dosing (FIG. 10 right panel).

[2] = test system: myeloid hematopoietic progenitor cells derived from human bone marrow; assay: myeloid colony formation of hematopoietic progenitor cells; type: cell-based
Experimental: Compound 1 was evaluated for its effects on proliferation of erythroid and myeloid hematopoietic progenitor cells derived from human bone marrow at […] Technologies Inc. (Vancouver, BC, Canada).
Cells were thawed rapidly at 37° C. into DNAse I and then diluted in 10 mL of Iscove's Modified Dulbecco's medium containing 2% fetal bovine serum (IMDM+2% FBS) and washed by centrifugation (1200 rpm for 10 minutes at room temperature). The supernatant was discarded and the cell pellet resuspended in a known volume of IMDM+2% FBS. A nucleated cell count (3% glacial acetic acid) and viability assessment (trypan blue exclusive test) were performed.
Compound 1 and positive control (panobinostat) were diluted in DMSO and tested at concentrations ranging from 0.002 μM to 5 μM in final media. These dilutions provided the appropriate final test concentrations required for the test and control articles ([…], and 0.002 μM).
Test and control articles were incubated with human bone marrow hematopoietic progenitor cells. After 14 days, cell colonies were assessed.
To calculate the concentration of 50% and 90% inhibition of colony growth (IC50 and IC90) for each test article, a dose response curve was generated plotting the log of the test article concentration versus the percentage of control colony growth using GraphPad Prism. […] The IC50 and IC90 values for both test and control articles were derived from an interpolation of the curve fit. In cases where the IC50/90 value reported by GraphPad Prism is a value beyond the range of concentrations that were actually tested, if this value is more than 4 times the highest concentration tested, or where GraphPad Prism cannot calculate an IC50/90 value, notations of >5 μM (for test article compound 1) are used.

[3] = 14 mg/kg (70 weekly) PO 5 on/2 off
[4] = 23 mg/kg (69 weekly) PO 3 on/4 off

CC(C)c1ccc(N(C)c2ccc3c(c2)OCC[C@H]3CNc2cnccc2C(=O)O)cc1 [Compound 1, 3-({[(4R)-7-{methyl[4-(propan-2-yl)phenyl]amino}-3,4-dihydro-2H-1-benzopyran-4-yl]methyl}amino)pyridine-4-carboxylic acid]
tolerability (mean body weight changes) ([1]; female NSG mice, all regimens, over the course of the study): well-tolerated | Median Tumor Volumes Day 19 ([1]; female NSG mice, free acid 10 mg/kg (70 weekly) PO QD x7): 1151 mm^3 | Median Tumor Volumes Day 19 ([1]; female NSG mice, free acid 14 mg/kg (70 weekly) PO 5 on/2 off): 1300 mm^3 | Median Tumor Volumes Day 19 ([1]; female NSG mice, free acid 20 mg/kg (70 weekly) PO QOD): 1527 mm^3 | Median Tumor Volumes Day 19 ([1]; female NSG mice, free acid 20 mg/kg (140 weekly) PO QD x7): 767 mm^3 | Median Tumor Volumes Day 19 ([1]; female NSG mice, free acid 23 mg/kg (69 weekly) PO 3 on/4 off): 1121 mm^3 | % TGI ([1]; 10 mg/kg (70 weekly) PO QD x7): 48% | Median Tumor Volumes Diff. ([1]; 10 mg/kg (70 weekly) PO QD x7): 901 mm^3 | % TGI [1, 3]: 42% | Median Tumor Volumes Diff. [1, 3]: 1019 mm^3 | % TGI ([1]; 20 mg/kg (70 weekly) PO QOD): 29% | Median Tumor Volumes Diff. ([1]; 20 mg/kg (70 weekly) PO QOD): 1242 mm^3 | % TGI ([1]; 20 mg/kg (140 weekly) PO QD x7): 71% | Median Tumor Volumes Diff. ([1]; 20 mg/kg (140 weekly) PO QD x7): 506 mm^3 | % TGI [1, 4]: 52% | Median Tumor Volumes Diff. [1, 4]: 833 mm^3 | IC50 ([2]; 336 h, human bone marrow progenitor cells, 14 days, read-out: IC50, inhibition of myeloid colony formation): > 5 µM | IC90 ([2]; 336 h, human bone marrow progenitor cells, colony growth after 14 days): > 5 µg/mL | IC50 ([2]; 336 h, human bone marrow progenitor cells, colony growth after 14 days, read-out: Myeloid IC50): > 5 µg/mL | concentrations at which colony morphology (size and density) was slightly compromised ([2]; myeloid derived colonies): ≥ 1.67 μM | effect on colony formation compared to 0.1% DMSO ([2]; progenitor cells from normal human bone marrow, p>0.01): no significant effect
